# Literature values, collected in publication PMC9549396 (Proceedings of the National Academy of Sciences of the …, 2022).
# Target: PI3KC2β (Homo sapiens, UniProt O00750)
# Experiment: lipid kinase activity inhibition
# Format: biochemical
# Sequence of PI3KC2β (O00750 whole entry): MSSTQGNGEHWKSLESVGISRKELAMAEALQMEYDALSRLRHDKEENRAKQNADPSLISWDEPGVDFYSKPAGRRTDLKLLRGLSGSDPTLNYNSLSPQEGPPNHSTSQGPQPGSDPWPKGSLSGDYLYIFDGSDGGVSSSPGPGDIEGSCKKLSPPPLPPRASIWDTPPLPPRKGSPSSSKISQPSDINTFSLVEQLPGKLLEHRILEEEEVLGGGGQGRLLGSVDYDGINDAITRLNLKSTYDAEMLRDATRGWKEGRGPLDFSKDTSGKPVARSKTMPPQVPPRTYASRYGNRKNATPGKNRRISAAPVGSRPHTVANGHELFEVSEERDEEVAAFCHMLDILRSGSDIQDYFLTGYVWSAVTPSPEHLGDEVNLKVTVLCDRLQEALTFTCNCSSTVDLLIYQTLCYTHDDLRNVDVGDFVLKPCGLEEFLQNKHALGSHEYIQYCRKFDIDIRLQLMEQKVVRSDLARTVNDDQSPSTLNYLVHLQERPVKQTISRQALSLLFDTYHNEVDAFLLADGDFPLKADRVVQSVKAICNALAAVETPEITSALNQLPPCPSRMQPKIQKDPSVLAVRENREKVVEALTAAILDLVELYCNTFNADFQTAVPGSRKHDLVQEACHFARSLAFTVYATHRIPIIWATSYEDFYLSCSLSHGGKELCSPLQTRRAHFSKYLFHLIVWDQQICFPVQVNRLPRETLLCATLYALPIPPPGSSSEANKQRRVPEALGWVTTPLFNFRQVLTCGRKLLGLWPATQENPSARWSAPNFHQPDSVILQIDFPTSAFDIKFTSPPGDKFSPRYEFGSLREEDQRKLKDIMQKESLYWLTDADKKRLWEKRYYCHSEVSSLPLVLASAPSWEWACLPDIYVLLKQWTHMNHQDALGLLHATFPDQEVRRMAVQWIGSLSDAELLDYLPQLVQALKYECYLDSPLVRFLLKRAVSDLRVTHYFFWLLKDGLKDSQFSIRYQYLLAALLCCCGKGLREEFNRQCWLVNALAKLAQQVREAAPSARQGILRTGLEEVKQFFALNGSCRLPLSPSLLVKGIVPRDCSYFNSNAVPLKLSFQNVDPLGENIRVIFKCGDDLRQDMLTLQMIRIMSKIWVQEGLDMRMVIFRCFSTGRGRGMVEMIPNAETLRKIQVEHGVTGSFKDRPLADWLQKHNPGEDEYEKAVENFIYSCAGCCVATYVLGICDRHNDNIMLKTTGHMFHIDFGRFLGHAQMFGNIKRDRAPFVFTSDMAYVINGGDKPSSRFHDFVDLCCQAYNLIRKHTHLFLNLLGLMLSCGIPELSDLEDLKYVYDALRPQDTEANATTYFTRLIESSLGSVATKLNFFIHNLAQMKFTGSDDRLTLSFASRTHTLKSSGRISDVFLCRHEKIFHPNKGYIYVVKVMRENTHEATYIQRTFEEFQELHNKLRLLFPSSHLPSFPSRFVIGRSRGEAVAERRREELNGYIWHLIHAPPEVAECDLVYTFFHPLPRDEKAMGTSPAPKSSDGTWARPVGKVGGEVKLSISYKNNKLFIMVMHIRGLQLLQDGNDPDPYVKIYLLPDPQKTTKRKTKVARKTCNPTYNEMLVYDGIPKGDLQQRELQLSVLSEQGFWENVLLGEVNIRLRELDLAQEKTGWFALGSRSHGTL
substance,measurement,value
PITCOIN2,IC50,1500 nM
